Earlier results in patent publication EP4789665A1, “TREATMENT OF HIS HYPORESPONDERS” (NewAmsterdam Pharma B.V., priority 2021, dated 2023).

Key:
CETP [1] = molecular target: T1, CETP (Homo sapiens, UniProt P11597); conditions: in vivo; cited from earlier work
T1 construct: endogenous in cells; host or cells: trial patients (in vivo, circulating plasma CETP)
T1 sequence (P11597 18-493): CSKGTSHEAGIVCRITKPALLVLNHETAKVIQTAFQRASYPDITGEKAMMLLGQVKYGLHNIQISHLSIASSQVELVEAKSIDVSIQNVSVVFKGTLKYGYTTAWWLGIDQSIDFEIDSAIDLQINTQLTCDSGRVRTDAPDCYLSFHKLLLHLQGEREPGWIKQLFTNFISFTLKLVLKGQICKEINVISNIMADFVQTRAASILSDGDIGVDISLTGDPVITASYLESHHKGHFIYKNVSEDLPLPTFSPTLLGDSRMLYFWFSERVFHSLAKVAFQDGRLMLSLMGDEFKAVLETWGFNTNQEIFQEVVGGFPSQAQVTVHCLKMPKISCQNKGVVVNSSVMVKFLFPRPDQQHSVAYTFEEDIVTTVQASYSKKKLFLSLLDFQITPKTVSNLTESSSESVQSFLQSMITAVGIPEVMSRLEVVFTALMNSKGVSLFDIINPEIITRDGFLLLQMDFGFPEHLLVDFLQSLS

HMG CoA reductase = molecular target: T2, HMG CoA reductase (Homo sapiens, UniProt P04035); conditions: rosuvastatin 20 mg; JUPITER secondary analysis; cited from earlier work
T2 construct: host or cells: patients of the JUPITER study (in vivo)
T2 sequence (P04035 1-888): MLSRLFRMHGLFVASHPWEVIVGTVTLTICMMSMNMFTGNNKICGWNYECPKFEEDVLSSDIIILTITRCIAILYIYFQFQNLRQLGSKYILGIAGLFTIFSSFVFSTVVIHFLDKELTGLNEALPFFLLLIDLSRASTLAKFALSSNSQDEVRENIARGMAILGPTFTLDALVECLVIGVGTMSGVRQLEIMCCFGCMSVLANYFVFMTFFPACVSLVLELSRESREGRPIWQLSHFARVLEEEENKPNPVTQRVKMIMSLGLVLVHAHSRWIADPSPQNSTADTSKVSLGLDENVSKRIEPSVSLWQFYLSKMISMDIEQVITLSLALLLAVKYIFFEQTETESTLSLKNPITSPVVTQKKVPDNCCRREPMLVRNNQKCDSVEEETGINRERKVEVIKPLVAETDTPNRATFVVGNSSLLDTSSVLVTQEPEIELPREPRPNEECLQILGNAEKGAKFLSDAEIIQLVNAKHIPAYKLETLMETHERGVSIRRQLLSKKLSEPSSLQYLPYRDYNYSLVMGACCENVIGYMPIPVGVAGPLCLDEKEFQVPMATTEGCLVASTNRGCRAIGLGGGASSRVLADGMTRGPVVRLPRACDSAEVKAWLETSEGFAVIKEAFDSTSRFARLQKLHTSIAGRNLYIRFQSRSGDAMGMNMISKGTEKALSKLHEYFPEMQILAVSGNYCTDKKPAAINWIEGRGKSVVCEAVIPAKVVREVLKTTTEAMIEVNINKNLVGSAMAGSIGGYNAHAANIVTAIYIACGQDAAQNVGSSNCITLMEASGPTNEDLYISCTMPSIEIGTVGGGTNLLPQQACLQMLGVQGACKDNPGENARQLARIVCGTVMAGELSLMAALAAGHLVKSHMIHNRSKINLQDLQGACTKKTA

CETP [2] = molecular target: T1, CETP; conditions: in combination with atorvastatin; cited from earlier work

For CCC(CC)CC1(C(=O)Nc2ccccc2SC(=O)C(C)C)CCCCC1 [dalcetrapib], the “effects on LDL-C concentrations” value (CETP [1]) is given as “minimal effects on LDL-C concentrations” and the “increased HDL-C by” value (CETP [1]) is given as 30-40%.

For CC(C)c1nc(N(C)S(C)(=O)=O)nc(-c2ccc(F)cc2)c1/C=C/[C@@H](O)C[C@@H](O)CC(=O)O [rosuvastatin], the “median LDL-C lowering response” value (HMG CoA reductase) is listed as 50%.

For CCOC(=O)N1c2ccc(C(F)(F)F)cc2[C@@H](N(Cc2cc(C(F)(F)F)cc(C(F)(F)F)c2)C(=O)OC)C[C@H]1CC [torcetrapib], the “cardiovascular events and death” value (CETP [2]) is given as “unexpected increase in cardiovascular events and death”.
